In patent publication US11197859B2 (AUTIFONY THERAPEUTICS LIMITED, priority 2010, dated 2021):
Entries after “also recorded” stand apart in the source; their conditions may differ.

How the values were obtained:
Male CD-1 mice = assay: Psychostimulant (amphetamine)-induced hyperactivity in mice; conditions: AMPH 2 mg/kg i.p. + clozapine 3 mg/kg i.p. 30 min before; over 60 min; mean ± sem; p<0.01 vs amphetamine alone
[1] = target: T1, human Kv3.2 channels (hKv3.2) (Homo sapiens, UniProt Q96PR1); assay: IonWorks Quattro electrophysiology, hKv3.2 currents, activation time constant (Tauact); assay type: cell-based; conditions: hKv3.2, -15 mV pulse
T1 construct: expressed in transfected cells
T1 sequence (Q96PR1 1-638): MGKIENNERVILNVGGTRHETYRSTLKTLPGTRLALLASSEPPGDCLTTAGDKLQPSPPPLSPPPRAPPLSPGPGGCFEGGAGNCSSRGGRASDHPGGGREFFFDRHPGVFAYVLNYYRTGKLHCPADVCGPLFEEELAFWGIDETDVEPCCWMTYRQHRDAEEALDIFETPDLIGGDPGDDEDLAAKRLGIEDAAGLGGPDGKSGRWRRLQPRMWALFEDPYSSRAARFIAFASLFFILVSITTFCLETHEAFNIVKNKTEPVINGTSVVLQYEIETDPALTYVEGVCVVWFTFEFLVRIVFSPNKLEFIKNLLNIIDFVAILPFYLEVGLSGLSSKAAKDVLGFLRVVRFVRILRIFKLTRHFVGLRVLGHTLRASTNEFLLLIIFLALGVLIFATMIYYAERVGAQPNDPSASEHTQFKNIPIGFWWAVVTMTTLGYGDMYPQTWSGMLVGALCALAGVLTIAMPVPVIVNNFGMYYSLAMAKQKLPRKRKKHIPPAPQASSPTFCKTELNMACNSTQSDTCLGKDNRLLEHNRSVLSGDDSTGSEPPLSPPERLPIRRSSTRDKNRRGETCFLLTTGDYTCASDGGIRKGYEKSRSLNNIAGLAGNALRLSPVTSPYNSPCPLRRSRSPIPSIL
Protocol: The ability of the compounds of the disclosure to modulate the voltage-gated potassium channel subtypes Kv3.2/3.1 may be determined using the following assay.
To assess compound effects on human Kv3.2 channels (hKv3.2), a stable cell line expressing hKv3.2 was created by transfecting Chinese Hamster Ovary (CHO)-K1 cells with a pCIH5-hKv3.2 vector. Cells were cultured in DMEM/F12 medium supplemented by 10% Foetal Bovine Serum, 1× non-essential amino acids (Invitrogen) and 500 ug/ml of Hygromycin-B (Invitrogen). Cells were grown and maintained at 37° C. in a humidified environment containing 5% CO2 in air.
The day of the experiment, cells were removed from the incubator and the culture medium removed. Cells were washed with 5 ml of Dulbecco's PBS (DPBS) calcium and magnesium free and detached by the addition of 3 ml Versene (Invitrogen, Italy) followed by a brief incubation at 37° C. for 5 minutes. The flask was tapped to dislodge cells and 10 ml of DPBS containing calcium and magnesium was added to prepare a cell suspension. The cell suspension was then placed into a 15 ml centrifuge tube and centrifuged for 2 min at 1200 rpm. After centrifugation, the supernatant was removed and the cell pellet re-suspended in 4 ml of DPBS containing calcium and magnesium using a 5 ml pipette to break up the pellet. Cell suspension volume was then corrected to give a cell concentration for the assay of approximately 3 million cells per ml.
Experiments were conducted at room temperature using IonWorks Quattro™ planar array electrophysiology technology (Molecular Devices Corp.) with PatchPlate™ PPC. Stimulation protocols and data acquisition were carried out using a microcomputer (Dell Pentium 4). Planar electrode hole resistances(Rp) were determined by applying a 10 mV voltage step across each well. These measurements were performed before cell addition. […] Following this, amphotericin-B solution was added to the intracellular face of the electrode to achieve intracellular access. Cells were held at −70 mV. Leak subtraction was conducted in all experiments by applying 50 ms hyperpolarizing (10 mV) prepulses to evoke leak currents followed by a 20 ms period at the holding potential before test pulses. From the holding potential of −70 mV, a first test pulse to −15 mV was applied for 100 ms and following a further 100 ms at −70 mV, a second pulse to 40 mV was applied for 50 ms. Cells were then maintained for a further 100 ms at −100 mV and then a voltage ramp from −100 mV to 40 mV was applied over 200 ms. In all experiments, the test pulses protocol was performed in the absence (pre-read) and presence (post-read) of the test compound. Pre- and post-reads were separated by the compound addition followed by a 3 minute incubation.
The intracellular solution contained the following (in mM): K-gluconate 100, KCl 54, MgCl2 3.2, HEPES 5, adjusted to pH 7.3 with KOH. Amphotericin-B solution was prepared as 50 mg/ml stock solution in DMSO and diluted to a final working concentration of 0.1 mg/ml in intracellular solution.
The final assay dilution was 200 and the final compound concentrations were in the range 50 μM to 50 nM.
The recordings were analysed and filtered using both seal resistance (>20 MΩ) and peak current amplitude (>500 pA at the voltage step of 40 mV) in the absence of compound to eliminate unsuitable cells from further analysis. Kv3 channel-mediated outward currents were measured determined from the mean amplitude of the current over the final 10 ms of the −15 mV voltage pulse minus the mean baseline current at −70 mV over a 10 ms period just prior to the −15 mV step. This Kv3 channel currents following addition of the test compound were then compared with the currents recorded prior to compound addition. […] The normalised data were analysed using ActivityBase or Excel software.

[2] = test system: common marmosets (Callithrix jacchus); assay: Pharmaco-electroencephalography (phEEG) in the common marmoset; assay type: in vivo
Protocol: Laboratory bred male (vasectomised) and female common marmosets (Callithrix jacchus) over 2 years of age, weighing 250-500 g were used in this study. The animals were caged in couples, in a housing room maintained at 25±1° C., 60% humidity and a 12 hour light/dark cycle (lights on at 0600, with 30 min simulated dawn and twilight). Animals received a standard diet and drinking water ad libitum. Only one animal of each pair was involved in the test, which was carried out with the animal situated in the home cage.
The effect of compounds of the disclosure was assessed using telemetric recording of cortical EEG (ECoG). A multichannel telemetric transmitter (DSI model TL11M2-F40-EET) is implanted intraperitoneally using standard surgical techniques in anaesthetised marmosets. Recording electrodes were permanently fixed, with dental cement, to the skull directly in contact with the dura mater through two drilled holes in the fronto-parietal region. Following surgery, animals were housed in pairs (one implanted, one unoperated partner) in their home cage with access to food and water ad libitum. […] All in vivo studies were conducted in accordance with the Italian laws and conformed to GlaxoSmithkline ethical standards.
The animals were placed in the nest-boxes in their room cages and EEG traces were recorded using Dataquest ART software for a 5-min period for each time-point and analyzed using Spike2 software (CED, UK). The spectral power in each frequency band was determined for each 2 sec epoch during the pre-treatment period and averaged; similarly spectral power in each band was determined for successive 2 sec epochs of each 5-min period of recording following vehicle or drug treatment. Change in the absolute spectral power, for each of the different bands (delta, theta, alpha and beta) was calculated offline.
Drug treatments were assigned according to a complete crossover design: All treatments were randomly distributed between animals, in separate experimental sessions, each animal received vehicle and each dose of drug, after an appropriate wash-out period.
Six animals were treated orally with Reference Example RE2 at the doses of 0.3, 1 and 3 mg/kg (1 ml/kg) and the EEG traces were recorded at +15, 30, 60, 90, 120 and 180 minutes following treatment. Reference Example RE2 was suspended in 12.5% (w/v) aqueous captisol containing 0.1% (w/v) Tween80 and 0.5% (w/v) HPMC.
Four different frequency bands were considered: delta (1.50-6.00 Hz), theta (6.00-8.00 Hz), alpha (8.00-12.00 Hz) and beta (12.00-30.00 Hz). Values for spectral power in each band at each time point were first log transformed and then analysed with a mixed effect model with time as fixed effect, the baseline level as covariate, and animal as random term. Data are summarised as mean of the percentage changes from baseline and standard error.

Male CD rats = assay: Electroshock seizure model in rats; assay type: in vivo, rat; conditions: 300 mg/kg p.o., 1 hour before test; positive control
Protocol: Male CD rats (85-130 g) were supplied by Charles River, Italy.
Testing involved determining the threshold for tonic hindlimb extensor seizures using a Hugo Sachs Electronik stimulator which delivers a constant current of 0.3 second duration, 50 Hz, sinewave form, fully adjustable between 1 and 300 mA. Stimuli were delivered via corneal electrodes (Stean T O, Atkins A R, Heidbreder C A, Quinn L P, Trail B K, Upton N. (2005) Br J Pharmacol. 144(5):628-35). Seizure threshold was determined using the ‘up and down’ method of Kimball et al. (1957)(Kimball A W, Burnett W T Jr, Doherty D G. (1957) Radiat Res. 7(1):1-12). The first animal tested in each group was stimulated with a current that might be expected to be close to the threshold for induction of a seizure. If a tonic seizure was not induced, then the next animal in the group received a stimulus 5 mA higher. If a tonic seizure was induced, then the next animal received a stimulus 5 mA lower. This is repeated for all animals within the control (vehicle) group. In the case of groups treated with a test compound steps of 5 to 10 mA were used. At the end of the study, blood samples were taken for analysis of the drug concentrations in this compartment (n=4/group).
All doses were calculated as base. Sodium valproate was suspended in Methocell 1% (w/v) and dosed via the oral (p.o.) route at 5 mL/kg 1 hour before test. Reference Example RE1 was dissolved in DMSO and then suspended in Methocell 1% (w/v) to a final DMSO concentration of 5% (v/v). Reference Example RE1 was then dosed p.o. at 5 mL/kg 2 hours before test.
Induction of seizure is measured as an all-or-nothing effect scored as either present (+) or absent (0) for each animal. […] Drug effects were calculated as the % change in CC50. Significant differences between drug-treated animals and appropriate vehicle treated groups were assessed according to the methods of Litchfield and Wilcoxon (1949).

[3] = test system: "fast-firing" interneurons in the somatosensory cortex; assay: Recordings from fast-firing interneurons, spike probability on trains of depolarising pulses; assay type: cell-based, mouse; conditions: 1 microM, n=6; trains at 100, 200, 300 Hz; effect at 300 Hz, p<0.05
Description: Kv3.1 and Kv3.2 channels must activate and deactivate very rapidly in order to allow neurons to fire actions potentials at high frequency (Rudy and McBain, 2001, Trends in Neurosciences 24, 517-526). Slowing of activation is likely to delay the onset of action potential repolarisation; slowing of deactivation could lead to hyperpolarising currents that reduce the excitability of the neuron and delay the time before the neuron can fire a further action potential. Together these slowing effects on channel activation and deactivation are likely to lead to a reduction rather than a facilitation of the neurons ability to fire at high frequencies. Thus compounds that have this slowing effect on the Kv3.1 and/or Kv3.2 channels may slow neuronal firing.
The neurons are induced to fire at high frequencies by trains of high frequency depolarising current pulses at 100, 200, and 300 Hz. The ability of the neuron to fire an action potential on each pulse is determined. […] In the absence of drug (closed circles, n=9), the neurons maintained a spike probability of 1 up to 300 Hz.

Structure (SMILES): CN1CCN(C2=Nc3cc(Cl)ccc3Nc3ccccc32)CC1 [Clozapine, reference compound]
- Total Distance Travelled (cm) (Male CD-1 mice): 932 ± 362 cm

Structure (SMILES): CC[C@@]1(C)NC(=O)N(c2ccc(Oc3ccc(C)c(OC)c3)nc2)C1=O [RE2, (5R)-5-ethyl-5-methyl-3-(6-{[4-methyl-3-(methyloxy)phenyl]oxy}-3-pyridinyl)-2,4-imidazolidinedione]
- Tauact mean ([1]; compound 12.5 μM (concentration giving ~0.3 nA current)): 7.3 ms
- absolute EEG power in the beta band ([2]; 1 mg/kg oral, at 30 minutes (concomitant), vs vehicle, p<0.05): significant reduction
- absolute EEG power in delta band ([2]; 1 mg/kg oral, at 30 minutes, vs vehicle, p<0.10): marginally significant (p<0.10) increase
- EEG theta band power ([2]; 3 mg/kg oral, at 60 minutes, vs vehicle, p<0.05): statistically significant increase
- absolute EEG power in the delta band ([2]; 3 mg/kg oral, between 30 and 120 minutes, vs vehicle, p<0.05): statistically significant increase
- EEG power in the alpha band ([2]; any dose (0.3, 1, 3 mg/kg oral)): No significant effects

Structure (SMILES): CCCC(CCC)C(=O)[O-].[Na+] [sodium valproate, Sodium valproate, reference compound]
- increase in seizure threshold (% change in CC50) (Male CD rats): 258%

Structure (SMILES): CC[C@H]1NC(=O)N(c2ccc(Oc3cccc4c3C3(CC3)CO4)nc2)C1=O [Example 15, (5R)-5-ethyl-3-[6-(spiro[1-benzofuran-3,1′-cyclopropan]-4-yloxy)-3-pyridinyl]-2,4-imidazolidinedione]
- Tauact mean ([1]; compound 0.2 μM (concentration giving ~0.3 nA current)): 50.1 ms
- ability of neurons to fire (spike probability) on trains of depolarising pulses [3]: reduces the ability of the neurons to fire; also recorded: unable to follow trains at the highest frequency
